# Data reported in patent US12337010B2, “Compositions and methods of treatment using nicotinamide mononucleotide” (Washington University, priority 2017, dated 2025).
# Assays:
# [1] = tested on: various types of primary cells; conditions: NMN co-administered with FK866, compared to NMN in the absence of FK866; cited from earlier work
# Slc12a8 mRNA expression = Slc12a8 mRNA expression by quantitative RT-PCR in cells and ex vivo small intestine explants; assay type: cell-based, mouse; conditions: FK866 plus NMN; primary hepatocytes, NIH3T3 fibroblasts (24 h), jejunum and ileum explants (4 h)
# Procedure: Cell culture and ex vivo small intestine explant culture. […] For Slc12a8 mRNA expression analysis, 2.5×10^5 cells per well were incubated in 6-well plates with DMEM with 1% FBS containing 0.1% DMSO or 100 nM FK866 or 100 nM FK866 plus 100 μM NMN for 24 h. Small intestines from 3-month old B6 male mice were cut into three segments with duodenum/jejunum/ileum length ratios of 1:3:2 (Wang, H. H., et al., Hepatology 45, 998-1006, 2007). […] Cellular and tissue RNA samples were analyzed by quantitative RT-PCR, as described previously (Stein, L. R. & Imai, S., EMBO J., 33, 1321-1340, 2014).
# The amounts of adenosine produced were determined by HPLC. […] Silencing efficiencies were evaluated by quantitative RT-PCR.
# FIG. 2 illustrates that Slc12a8 is highly expressed in the small intestine and pancreas and moderately in the liver and white adipose tissue of B6 male mice at 3 months of age (n=3 mice). […] Cells were treated with these compounds for 24 h (n=4 mice for hepatocytes treated with DMSO and FK866, and n=3 mice for hepatocytes treated with FK866 and NMN; n=6 for NIH3T3 cells; analyzed using ANOVA with Tukey's test). FIG. 5 illustrates surface and intracellular Slc12a8 protein expression levels were measured by flow cytometry analysis in NIH3T3 cells treated with FK866 or FK866 plus NMN for 48h. […]
# [2] = Jejunum NAD+ levels 60 min after oral gavage of NMN; assay type: in vivo, mouse; conditions: 60 min after oral gavage (500 mg/kg), Slc12a8-knockdown mice compared to control mice
# From the text: In vivo Slc12a8 knockdown experiment. To generate shRNA-expressing lentiviral constructs, 56-bp double-stranded oligonucleotides, each of which contains a sense target sequence, a microRNA-based loop sequence ([…]; SEQ ID NO: 4), an antisense sequence, a termination sequence of four thymidines, and appropriate restriction enzyme sites at both ends, were generated for mouse Slc12a8 and firefly luciferase (fLuc) and cloned into the U6-PGK-GFP vector provided by the Viral Vectors Core at Washington University School of Medicine. The sense Slc12a8 sequence is ‘5-[…]-3’ (SEQ ID NO: 5). Lentiviruses were produced as previously described (Satoh, A. et al., Cell Metab., 18, 416-430, 2013). Knockdown efficiency was tested using primary intestinal cultures (Sato, T. & Clevers, H., Methods Mol. Biol. 945, 319-328, 2013). Large-scale lentivirus production was carried on by the Viral Vectors Core at the Hope Center for Neurological Disorders at Washington University. […]
# Lentiviruses carrying control firefly luciferase (fLuc) shRNA and Slc12a8 shRNA were generated as described supra. […] Slc12a8 protein expression levels in control shfLuc lentivirus- and shSlc12a8 lentivirus-infected jejunum and ileum samples were measured through Western blots (FIG. 17). […] Then NAD+ levels were measured by HPLC in these samples (analyzed by ANOVA with Tukey's test).
smiles,measurement,setting,value
"NC(=O)c1ccc[n+]([C@@H]2O[C@H](COP(=O)([O-])O)[C@@H](O)[C@H]2O)c1 [NMN, nicotinamide mononucleotide]",NAD+ increase,[1],higher NAD+ increases
same,Slc12a8 expression induced by FK866,Slc12a8 mRNA expression,suppressed
same,NAD+ levels in the jejunum,[2],significantly decreased
